# Assay results from article PMC4106024 (Cancer biology & therapy, 2008).
# Entries after “also recorded” stand apart in the source; their conditions may differ. Where two headings read alike, the source gives them in different places. *: point of attachment. Cbz = O=C(OCc1ccccc1)*; CH2F = FC*
# Columns and labels:
# [1] = target: recombinant human Mcl-1 (Homo sapiens, UniProt Q07820); test: Fluorescence polarization-based competitive binding assay
# [2] = system: WSU-DLCL2 cells; details: read-out: Estimated IC50; cited from earlier work
# [3] = Stability test in solid state, spectral purity by HPLC-UV; format: physicochemical; details: amber glass container, room temperature, n = 2
# [4] = Stability under stressed conditions, spectral purity by HPLC-UV; format: physicochemical; details: n = 2
# [5] = system: WSU-DLCL2 cells; test: Cell growth inhibition by Trypan Blue cell counting and MTT assay; format: cell-based, human; details: WSU-DLCL2, 350 nM, Trypan Blue cell counting
# [6] = system: WSU-DLCL2 xenografts; test: In vivo efficacy test in WSU-DLCL2 SCID mouse xenografts; set-up: species or system ICR-SCID mice; details: 600 mg/kg (120 mg/kg daily for 5 days), iv or po
# [7] = system: protein levels of Bcl-XL or Bim; test: Western blot of whole cell lysate for Bcl-XL and Bim; format: cell-based, human; details: concentrations up to 5 μM
# [8] = system: WSU-DLCL2 cells; test: Acridine orange/ethidium bromide; format: cell-based, human; details: 4.0 μm
# [9] = system: cleavage of caspase-3, caspase-9 and PARP; test: Western blot of apoptosis markers in WSU-DLCL2 cells; format: cell-based, human; details: WSU-DLCL2 whole cell lysate
# [10] = system: FSCCL cells; test: Cell growth inhibition, Trypan blue cell counting; format: cell-based, human; details: high level of Bcl-2
# [11] = system: WM cells; test: Cell growth inhibition, Trypan blue cell counting; format: cell-based, human; details: very low level of Bcl-2
# [12] = system: PANC-1 cells; test: Cell growth inhibition, MTT assay; format: cell-based, human; details: PANC-1, very low level of Bcl-2
# [13] = Serum concentration in mice; format: in vivo; details: iv 80 mg/kg per day for five days
# [14] = system: non-tumor-bearing SCID mice; details: in vivo
# [15] = system: normal peripheral blood lymphocytes; test: Cytotoxic effect on normal lymphocytes, Trypan Blue cell counting; details: as high as 8 μM, 72 h
# [16] = system: primary cells of mantle cell lymphoma; test: Cytotoxic effect on patient-derived primary cells, Trypan Blue cell counting; details: 350 nM or higher, 72 h
# [17] = system: primary cells of chronic lymphocytic leukemia; test: as above; details: 350 nM or higher, 72 h
# [18] = system: DLCL2 cells; test: Growth inhibition of DLCL2 cells with caspase inhibitors and/or ApoG2; format: cell-based, human
# [19] = system: Bcl-2 expressing B-cells; details: in vitro; cited from earlier work
# [20] = in vivo, cited from earlier work
# [21] = system: normal female Balb/c mice; details: 120 μM/kg (approximately 62 mg/kg), five days daily po × 3 weeks; versus vehicle control or Apogossypol; cited from earlier work
# [22] = Maximal tolerated dose; details: SCID, mouse, in vivo, iv, 40 mg/kg
# [23] = system: non-tumor-bearing SCID mice; test: Maximal tolerated dose
# Sequence of recombinant human Mcl-1 (Q07820 whole entry): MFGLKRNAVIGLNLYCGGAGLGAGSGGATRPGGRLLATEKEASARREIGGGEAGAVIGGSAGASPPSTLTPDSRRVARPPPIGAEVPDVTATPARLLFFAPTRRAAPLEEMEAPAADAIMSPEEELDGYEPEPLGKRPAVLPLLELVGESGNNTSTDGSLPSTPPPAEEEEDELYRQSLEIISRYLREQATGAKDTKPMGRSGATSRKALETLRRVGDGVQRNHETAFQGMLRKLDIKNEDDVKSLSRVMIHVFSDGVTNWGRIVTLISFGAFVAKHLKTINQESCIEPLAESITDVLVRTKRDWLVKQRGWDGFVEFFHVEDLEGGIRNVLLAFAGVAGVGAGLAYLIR
compound,measurement,setting,value
"Cc1cc2c(C(C)C)c(O)c(O)c(C=O)c2c(O)c1-c1c(C)cc2c(C(C)C)c(O)c(O)c(C=O)c2c1O [(-)-gossypol, reference compound]",Ki,[1],170 ± 10 nM
same,IC50,[2],> 1000 nM
Apogossypolone [ApoG2],Spectral purity in solid state,[3]; 0 h,100.0 ± 0%
same,Spectral purity in solid state,[3]; 2 weeks,100.0 ± 0.1%
same,Spectral purity in solid state,[3]; 3 weeks,100.0 ± 0.1%
same,Spectral purity in solid state,[3]; 4 days,99.7 ± 0.5%
same,Spectral purity in solid state,[3]; 7 days,99.9 ± 0.2%
same,Spectral purity under stressed conditions,"[4]; 0.1 N HCI, 5 mm",96.5 ± 0.4%
same,Spectral purity under stressed conditions,"[4]; 0.1 N NaOH, 5 mm",96.3 ± 0.4%
same,Spectral purity under stressed conditions,"[4]; 30% H2O2, 5 mm",97.3 ± 0.2%
same,Spectral purity under stressed conditions,"[4]; Normal light, 2 h",95.2 ± 0.2%
same,Spectral purity under stressed conditions,[4]; Reference,98.0 ± 0.4%
same,Growth inhibition,[5],approximately 50%
same,"Growth inhibition of mouse xenografts, single agent",[6],comparable with that resulted from treatment with CHOP; also recorded: significant growth inhibition
same,Ki,"[1]; recombinant Mcl-1, n = 3",25 ± 10 nM
same,Protein levels of Bcl-XL or Bim,[7],did not affect significantly
same,Apoptotic cells (AO/EtBr),"[8]; 24 h, control approximately 3%",10%
same,Apoptotic cells (AO/EtBr),"[8]; 48 h, control approximately 4%",17%
same,Apoptotic cells (AO/EtBr),"[8]; 72 h, control approximately 7%",32%
same,"Cleavage of caspase-3, caspase-9 and PARP",[9],"resulted in the activation of cleavages of caspase-3, caspase-9 and PARP"
same,Growth inhibition,[10],induces growth inhibition
same,Growth inhibition,[11],induces growth inhibition
same,Growth inhibition,[12],induces growth inhibition
same,Serum concentration (unbound),[13],5.0 µM
same,"H & E staining of sections of mouse liver, small and large intestines",[14],no abnormality
same,Cytotoxicity on normal cells,[15],no major cytotoxicity; also recorded: no toxicity
same,Cytotoxic effect,[16],significant cytotoxic effect
same,Cytotoxic effect,[17],significant cytotoxic effect
Cbz-Val-Ala-Asp-CH2F,"Growth inhibition, caspase inhibitor alone",[18],no effects of growth inhibition
Cc1cc2c(C(C)C)c(O)c(O)cc2c(O)c1-c1c(C)cc2c(C(C)C)c(O)c(O)cc2c1O [Apogossypol],medial lethal dose (LD50),[19],3 to 5 µM
same,Blood concentrations over time,[20],superior blood concentrations over time compared to gossypol
Cbz-LEHD-CH2F,"Growth inhibition, caspase inhibitor alone",[18],no effects of growth inhibition
"Cc1cc2c(C(C)C)c(O)c(O)c(C=O)c2c(O)c1-c1c(C)cc2c(C(C)C)c(O)c(O)c(C=O)c2c1O (racemic) [Racemic gossypol, gossypol, reference compound]",Spectral purity in solid state,[3]; 0 h,100.0 ± 0%
same,Spectral purity in solid state,[3]; 2 weeks,99.9 ± 0.1%
same,Spectral purity in solid state,[3]; 3 weeks,99.8 ± 0.2%
same,Spectral purity in solid state,[3]; 4 days,99.4 ± 0.1%
same,Spectral purity in solid state,[3]; 7 days,99.8 ± 0.1%
same,Spectral purity under stressed conditions,"[4]; 0.1 N HCI, 5 mm",15.8 ± 0.4%
same,Spectral purity under stressed conditions,"[4]; 0.1 N NaOH, 5 mm",10.4 ± 0.2%
same,Spectral purity under stressed conditions,"[4]; 30% H2O2, 5 mm",14.5 ± 0.4%
same,Spectral purity under stressed conditions,"[4]; Normal light, 2 h",92.3 ± 0.2%
same,Spectral purity under stressed conditions,[4]; Reference,92.6 ± 0.6%
Z-DEVD-FMK,"Growth inhibition, caspase inhibitor alone",[18],no effects of growth inhibition
Cc1cc2c(C(C)C)c(O)c(O)c(C=O)c2c(O)c1-c1c(C)cc2c(C(C)C)c(O)c(O)c(C=O)c2c1O [gossypol],medial lethal dose (LD50),[19],7.5 to 10 µM
same,Hepatotoxicity and gastrointestinal toxicity,[21],a great deal of hepatotoxicity and gastrointestinal toxicity
same,Bioavailability when given orally,[20]; po,12.2–17.6%
same,MTD at 3 days,[22],120 mg/kg
same,Signs of toxicity at MTD,[23]; 120 mg/kg (3 x 40 mg/kg iv),scruffy and rough hair as well as lethargic behavior
same,Weight loss at MTD,"[23]; 120 mg/kg (3 x 40 mg/kg iv), data not shown",< 5%
same,Lethality,[23]; daily iv injection of 40 mg/kg for 4 days or 60 mg/kg for three days,lethal
same,"H & E staining of sections of mouse liver, small and large intestines","[23]; versus vehicle control, data not shown",no abnormality
